Test results: patent publication US20250243189A1, “HERBICIDAL IMIDAZOLE-CONTAINING COMPOUNDS” (SYNGENTA CROP PROTECTION AG, priority 2022, published 2025)

Columns and labels:
Type in all cases: in vivo
Settings in all cases: 250 g/ha, evaluated after 13 days, five-point scale
IPOHE [1] = assay: Post-emergence herbicidal glasshouse test
Method: (§1) Seeds of a variety of test species are sown in standard soil in pots Amaranthus retoflexus (AMARE), Echinochloa crus-galli (ECHCG), Setaria faberi (SETFA)). After cultivation for one day (pre-emergence) or after 8 days cultivation (post-emergence) under controlled conditions in a glasshouse (at 24/16° C., day/night; 14 hours light; 65% humidity), the plants are sprayed with an aqueous spray solution derived from the formulation of the technical active ingredient in acetone/water (50:50) solution containing 0.5% Tween 20 (polyoxyethelyene sorbitan monolaurate, CAS RN 9005-64-5). Compounds are applied at 250 g/ha unless otherwise stated. The test plants are then grown in a glasshouse under controlled conditions in a glasshouse (at 24/16° C., day/night; 14 hours light; 65% humidity) and watered twice daily. After 13 days for pre and post-emergence, the test is evaluated for the percentage damage caused to the plant. The biological activities are shown in the following table on a five-point scale (5=81-100%; 4=61-80%; 3=41-60%; 2=21-40%; 1=0-20%).

[2] = tested on: Echinochloa crus-galli (ECHCG); assay: Post-emergence herbicidal glasshouse test
Method: as §1

AMAPA [3] = assay: Post-emergence herbicidal glasshouse test
Method: [Worded in the source for another organism; this organism is reported under the same test.] as §1

[4] = tested on: Amaranthus retoflexus (AMARE); assay: Post-emergence herbicidal glasshouse test
Method: as §1

IPOHE [5] = assay: Pre-emergence herbicidal glasshouse test
Method: as §1

[6] = tested on: Echinochloa crus-galli (ECHCG); assay: Pre-emergence herbicidal glasshouse test
Method: as §1

AMAPA [7] = assay: Pre-emergence herbicidal glasshouse test
Method: [Worded in the source for another organism; this organism is reported under the same test.] as §1

[8] = tested on: Amaranthus retoflexus (AMARE); assay: Pre-emergence herbicidal glasshouse test
Method: as §1

| SMILES | percentage damage caused to the plant, IPOHE (IPOHE [1]) | percentage damage caused to the plant, ECHCG [2] | percentage damage caused to the plant, AMAPA (AMAPA [3]) | percentage damage caused to the plant, AMARE [4] | percentage damage caused to the plant, IPOHE (IPOHE [5]) | percentage damage caused to the plant, ECHCG [6] | percentage damage caused to the plant, AMAPA (AMAPA [7]) | percentage damage caused to the plant, AMARE [8] |
| --- | --- | --- | --- | --- | --- | --- | --- | --- |
| FC(F)(F)c1cn(Cc2ncc(Cl)cn2)c(-c2sccc2Cl)n1 [Compound 1.002] | 1 (1=0-20%) | 1 (1=0-20%) | 1 (1=0-20%) | 1 (1=0-20%) | 1 (1=0-20%) | 1 (1=0-20%) | 2 (2=21-40%) | 2 (2=21-40%) |
| CS(=O)(=O)c1ccc(-c2nc(C(F)(F)F)cn2Cc2ncc(Cl)cn2)s1 [Compound 1.003] | 4 (4=61-80%) | 5 (5=81-100%) | 4 (4=61-80%) | 4 (4=61-80%) | 5 (5=81-100%) | 5 (5=81-100%) | 5 (5=81-100%) | 5 (5=81-100%) |
| Cn1ccc(-c2nc(C(F)(F)F)cn2Cc2ncc(Cl)cn2)n1 [Compound 1.004] | 1 (1=0-20%) | 1 (1=0-20%) | 1 (1=0-20%) | 1 (1=0-20%) | 1 (1=0-20%) | 1 (1=0-20%) | 1 (1=0-20%) | 1 (1=0-20%) |
| Cc1nnsc1-c1nc(C(F)(F)F)cn1Cc1ncc(Cl)cn1 [Compound 1.007] | 4 (4=61-80%) | 2 (2=21-40%) | 4 (4=61-80%) | 5 (5=81-100%) | 5 (5=81-100%) | 4 (4=61-80%) | 5 (5=81-100%) | 5 (5=81-100%) |
| FC(F)(F)c1cn(Cc2ncc(Cl)cn2)c(-c2csc(Cl)n2)n1 [Compound 1.009] | 1 (1=0-20%) | 1 (1=0-20%) | 2 (2=21-40%) | 2 (2=21-40%) | 1 (1=0-20%) | 1 (1=0-20%) | 3 (3=41-60%) | 4 (4=61-80%) |
| FC(F)(F)c1cn(Cc2ncc(Cl)cn2)c(-c2cc(Cl)cs2)n1 [Compound 1.010] | 4 (4=61-80%) | 4 (4=61-80%) | 4 (4=61-80%) | 4 (4=61-80%) | 4 (4=61-80%) | 5 (5=81-100%) | 5 (5=81-100%) | 5 (5=81-100%) |
| Cc1ccc(-c2nc(C(F)(F)F)cn2Cc2ncc(Cl)cn2)s1 [Compound 1.011] | 2 (2=21-40%) | 4 (4=61-80%) | 4 (4=61-80%) | 4 (4=61-80%) | 5 (5=81-100%) | 5 (5=81-100%) | 5 (5=81-100%) | 5 (5=81-100%) |
| FC(F)(F)c1cn(Cc2ncc(Cl)cn2)c(-c2cnn(C3CC3)c2)n1 [Compound 1.015] | 5 (5=81-100%) | 4 (4=61-80%) | 4 (4=61-80%) | 5 (5=81-100%) | 5 (5=81-100%) | 5 (5=81-100%) | 5 (5=81-100%) | 5 (5=81-100%) |
| FC(F)n1cc(-c2nc(C(F)(F)F)cn2Cc2ncc(Cl)cn2)cn1 [Compound 1.017] | 5 (5=81-100%) | 5 (5=81-100%) | 5 (5=81-100%) | 5 (5=81-100%) | 5 (5=81-100%) | 5 (5=81-100%) | 5 (5=81-100%) | 5 (5=81-100%) |
| Cc1nc(-c2nc(C(F)(F)F)cn2Cc2ncc(Cl)cn2)co1 [Compound 1.018] | 2 (2=21-40%) | 1 (1=0-20%) | 1 (1=0-20%) | 2 (2=21-40%) | 1 (1=0-20%) | 1 (1=0-20%) |  | 2 (2=21-40%) |
| FC(F)(F)c1cn(Cc2ncc(Cl)cn2)c(-c2ncco2)n1 [Compound 1.019] | 1 (1=0-20%) | 1 (1=0-20%) | 1 (1=0-20%) | 1 (1=0-20%) | 1 (1=0-20%) | 1 (1=0-20%) | 1 (1=0-20%) | 1 (1=0-20%) |
| FC(F)(F)c1cn(Cc2ncc(Cl)cn2)c(-c2cnco2)n1 [Compound 1.020] | 4 (4=61-80%) | 1 (1=0-20%) | 2 (2=21-40%) | 3 (3=41-60%) | 4 (4=61-80%) | 1 (1=0-20%) | 3 (3=41-60%) | 5 (5=81-100%) |
| FC(F)(F)c1cn(Cc2ncc(Cl)cn2)c(-c2csc(Cl)c2)n1 [Compound 1.021] | 4 (4=61-80%) | 4 (4=61-80%) | 5 (5=81-100%) | 4 (4=61-80%) | 4 (4=61-80%) | 5 (5=81-100%) | 5 (5=81-100%) | 5 (5=81-100%) |
| FC(F)(F)c1cn(Cc2ncc(Cl)cn2)c(-c2nccs2)n1 [Compound 1.022] | 1 (1=0-20%) | 1 (1=0-20%) | 1 (1=0-20%) | 1 (1=0-20%) | 1 (1=0-20%) | 1 (1=0-20%) | 1 (1=0-20%) |  |
| FC(F)(F)c1cn(Cc2ncc(Cl)cn2)c(-c2cscn2)n1 [Compound 1.023] | 2 (2=21-40%) | 1 (1=0-20%) | 1 (1=0-20%) | 1 (1=0-20%) | 1 (1=0-20%) | 1 (1=0-20%) | 1 (1=0-20%) |  |
| N#Cc1ccc(-c2nc(C(F)(F)F)cn2Cc2ncc(Cl)cn2)s1 [Compound 1.027] | 4 (4=61-80%) | 5 (5=81-100%) | 5 (5=81-100%) | 5 (5=81-100%) | 5 (5=81-100%) | 5 (5=81-100%) | 5 (5=81-100%) | 5 (5=81-100%) |
| Fc1ccc(-c2nc(C(F)(F)F)cn2Cc2ncc(Cl)cn2)s1 [Compound 1.038] | 4 (4=61-80%) | 5 (5=81-100%) | 4 (4=61-80%) | 5 (5=81-100%) | 5 (5=81-100%) | 5 (5=81-100%) | 5 (5=81-100%) | 5 (5=81-100%) |
| FC(F)Oc1cccc(Cn2cc(C(F)(F)F)nc2-c2ccc(Cl)s2)n1 [Compound 1.048] | 1 (1=0-20%) | 1 (1=0-20%) | 1 (1=0-20%) | 1 (1=0-20%) |  | 1 (1=0-20%) | 1 (1=0-20%) | 1 (1=0-20%) |
